Values quoted from earlier work, collected in patent US7374920B2, “Ginkgo biloba levopimaradiene synthase” (priority 2001, dated 2008).

Assays:
[1] = biological target: platelet-activating factor (PAF) receptor (Homo sapiens, UniProt P25105); conditions: compared with the other ginkgolide diterpenes; cited from earlier work
[2] = tested on: insect larvae; conditions: Schwarz, M., 1994; Matsumoto, et al., 1987; cited from earlier work

Sequence of platelet-activating factor (PAF) receptor (P25105 whole entry): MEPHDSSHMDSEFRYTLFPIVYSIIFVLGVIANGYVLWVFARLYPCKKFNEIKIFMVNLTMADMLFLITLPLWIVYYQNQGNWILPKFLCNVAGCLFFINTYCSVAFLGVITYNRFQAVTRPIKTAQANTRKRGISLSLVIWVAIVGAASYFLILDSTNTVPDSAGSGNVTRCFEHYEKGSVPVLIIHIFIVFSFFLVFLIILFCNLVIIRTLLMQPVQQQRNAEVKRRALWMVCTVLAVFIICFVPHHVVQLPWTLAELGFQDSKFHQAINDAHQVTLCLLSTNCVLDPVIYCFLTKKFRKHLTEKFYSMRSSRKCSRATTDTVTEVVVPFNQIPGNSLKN

Row | Structure (SMILES) | PAF antagonist activity [1] | antifeedant activity [2]
1 | CC1C(=O)OC2C(O)C34C5CC(C(C)(C)C)C36C(OC(=O)C6O)OC4(C(=O)O5)C12O (centres unmarked) [ginkgolide B] | highest activity of the diterpenes | 
2 | CC(C)(C)[C@]1(O)CC2OC(=O)CC23C(=O)OC2OC(=O)[C@H](O)C231 (some centres unmarked) [bilobalide] |  | significant antifeedant activities toward insect larvae
